# In article PMC5218480 (PLoS ONE, 2017):
# System: MV-4-11 cells
# Experiment: Gene expression microarray analysis (Affymetrix PrimeView) and GSEA
# Type: cell-based, human
# Design: RFU PODN (11730768_x_at) / Fold change /veh PODN (11730768_x_at) / RFU LINC00158 (11744669_a_at) / Fold change /veh LINC00158 (11744669_a_at) / RFU DUSP10 (11751237_a_at) / Fold change /veh DUSP10 (11751237_a_at) / RFU ID3 (11757404_x_at) / Fold change /veh ID3 (11757404_x_at) / RFU PLEKHG5 (11737974_s_at) / Fold change /veh PLEKHG5 (11737974_s_at) / RFU LRRC4B (11730491_at) / Fold change /veh LRRC4B (11730491_at) / RFU GIMAP4 (11747438_a_at) / Fold change /veh GIMAP4 (11747438_a_at) / RFU KRT8 (11758183_x_at) / Fold change /veh KRT8 (11758183_x_at) / RFU CNN1 (11734310_a_at) / Fold change /veh CNN1 (11734310_a_at) / RFU VPS37D (11726825_at) / Fold change /veh VPS37D (11726825_at) / RFU C10orf10 (11716522_x_at) / Fold change /veh C10orf10 (11716522_x_at) / RFU KIR2DL2 /// KIR2DL4 /// KIR2DL5A /// KIR2DL5B /// KIR2DS1 /// KIR2DS2 /// KIR2DS3 /// KIR2DS4 /// KIR3DL3 /// KIR3DL3 /// KIR3DS1 (11738374_at) / Fold change /veh KIR2DL2 /// KIR2DL4 /// KIR2DL5A /// KIR2DL5B /// KIR2DS1 /// KIR2DS2 /// KIR2DS3 /// KIR2DS4 /// KIR3DL3 /// KIR3DL3 /// KIR3DS1 (11738374_at) / RFU C1QL1 (11718748_at) / Fold change /veh C1QL1 (11718748_at) / RFU TMPRSS4 (11747572_a_at) / Fold change /veh TMPRSS4 (11747572_a_at) / RFU HAMP (11756126_x_at) / Fold change /veh HAMP (11756126_x_at) / RFU RNFT2 (11725882_a_at) / Fold change /veh RNFT2 (11725882_a_at) / RFU NR4A2 (11747474_a_at) / Fold change /veh NR4A2 (11747474_a_at) / RFU ABCC12 (11746883_a_at) / Fold change /veh ABCC12 (11746883_a_at) / RFU TMEM136 (11760407_x_at) / Fold change /veh TMEM136 (11760407_x_at) / RFU CLDN22 /// WWC2 (11732394_at) / Fold change /veh CLDN22 /// WWC2 (11732394_at) / RFU HLA-DPB1 (11760878_x_at) / Fold change /veh HLA-DPB1 (11760878_x_at) / RFU SPINT1 (11716480_a_at) / Fold change /veh SPINT1 (11716480_a_at) / RFU GAP43 (11754022_s_at) / Fold change /veh GAP43 (11754022_s_at) / RFU A4GNT (11735810_at) / Fold change /veh A4GNT (11735810_at) / RFU PRB3 (11715151_x_at) / Fold change /veh PRB3 (11715151_x_at) / RFU TUBB4B (11761932_at) / Fold change /veh TUBB4B (11761932_at) / RFU CAPN14 (11732068_a_at) / Fold change /veh CAPN14 (11732068_a_at) / RFU TMCC2 (11721928_a_at) / Fold change /veh TMCC2 (11721928_a_at) / RFU IRGQ (11745062_a_at) / Fold change /veh IRGQ (11745062_a_at) / RFU FAM174B (11720279_a_at) / Fold change /veh FAM174B (11720279_a_at) / RFU TMPRSS4 (11748680_a_at) / Fold change /veh TMPRSS4 (11748680_a_at) / RFU FAM212B (11763350_a_at) / Fold change /veh FAM212B (11763350_a_at) / RFU PLEKHG5 (11743358_a_at) / Fold change /veh PLEKHG5 (11743358_a_at) / RFU ZSCAN30 (11745921_a_at) / Fold change /veh ZSCAN30 (11745921_a_at) / RFU CMKLR1 (11741424_a_at) / Fold change /veh CMKLR1 (11741424_a_at) / RFU LOC101060620 /// MAPK8IP1 (11723275_at) / Fold change /veh LOC101060620 /// MAPK8IP1 (11723275_at) / RFU SPTSSB (11747773_x_at) / Fold change /veh SPTSSB (11747773_x_at) / RFU PRSS12 (11739890_at) / Fold change /veh PRSS12 (11739890_at) / RFU BIN1 (11741810_x_at) / Fold change /veh BIN1 (11741810_x_at) / RFU WNT11 (11732464_a_at) / Fold change /veh WNT11 (11732464_a_at) / RFU C10orf10 (11716521_a_at) / Fold change /veh C10orf10 (11716521_a_at) / RFU C5orf56 (11738089_at) / Fold change /veh C5orf56 (11738089_at) / RFU CYB561 (11721691_x_at) / Fold change /veh CYB561 (11721691_x_at) / RFU ANKRD19P (11752326_a_at) / Fold change /veh ANKRD19P (11752326_a_at) / RFU OR2T12 /// OR2T33 /// OR2T8 (11738714_s_at) / Fold change /veh OR2T12 /// OR2T33 /// OR2T8 (11738714_s_at) / RFU VCAN (11748164_a_at) / Fold change /veh VCAN (11748164_a_at) / RFU JSRP1 (11732532_at) / Fold change /veh JSRP1 (11732532_at) / RFU KRTAP10-11 (11738290_x_at) / Fold change /veh KRTAP10-11 (11738290_x_at) / RFU MYO3A (11730013_a_at) / Fold change /veh MYO3A (11730013_a_at) / RFU EBF3 (11725865_a_at) / Fold change /veh EBF3 (11725865_a_at) / RFU CAMK2N1 (11719241_x_at) / Fold change /veh CAMK2N1 (11719241_x_at) / RFU C5orf56 (11738088_a_at) / Fold change /veh C5orf56 (11738088_a_at) / RFU OLFML3 (11715873_a_at) / Fold change /veh OLFML3 (11715873_a_at) / RFU LOC100653217 /// NTM (11731650_a_at) / Fold change /veh LOC100653217 /// NTM (11731650_a_at) / RFU MAPK11 (11762145_a_at) / Fold change /veh MAPK11 (11762145_a_at) / RFU FIZ1 (11724087_x_at) / Fold change /veh FIZ1 (11724087_x_at) / RFU OASL (11726364_x_at) / Fold change /veh OASL (11726364_x_at) / RFU SOX15 (11748057_x_at) / Fold change /veh SOX15 (11748057_x_at) / RFU CD79A (11719716_a_at) / Fold change /veh CD79A (11719716_a_at) / RFU HIST1H1D (11736915_at) / Fold change /veh HIST1H1D (11736915_at) / RFU CASKIN2 (11723855_a_at) / Fold change /veh CASKIN2 (11723855_a_at) / RFU LOC730098 (11760151_x_at) / Fold change /veh LOC730098 (11760151_x_at) / RFU OR4N2 (11742367_at) / Fold change /veh OR4N2 (11742367_at) / RFU PRRT2 (11749266_a_at) / Fold change /veh PRRT2 (11749266_a_at) / RFU SNX32 (11753110_a_at) / Fold change /veh SNX32 (11753110_a_at) / RFU CDHR5 (11726645_a_at) / Fold change /veh CDHR5 (11726645_a_at) / RFU RCAN1 (11760418_a_at) / Fold change /veh RCAN1 (11760418_a_at) / RFU FAM167A (11723789_a_at) / Fold change /veh FAM167A (11723789_a_at) / RFU FAM26E (11764081_at) / Fold change /veh FAM26E (11764081_at) / RFU ISYNA1 (11749810_s_at) / Fold change /veh ISYNA1 (11749810_s_at) / RFU ACY1 (11761880_at) / Fold change /veh ACY1 (11761880_at) / RFU 11764098_at / Fold change /veh 11764098_at / RFU SAMD14 (11745864_x_at) / Fold change /veh SAMD14 (11745864_x_at) / RFU NPB (11741838_a_at) / Fold change /veh NPB (11741838_a_at) / RFU TMPRSS6 (11731388_a_at) / Fold change /veh TMPRSS6 (11731388_a_at) / RFU KRTAP10-2 (11738614_at) / Fold change /veh KRTAP10-2 (11738614_at) / RFU ARHGAP8 /// PRR5-ARHGAP8 (11727945_x_at) / Fold change /veh ARHGAP8 /// PRR5-ARHGAP8 (11727945_x_at) / RFU KRTAP5-7 /// NADSYN1 (11734609_at) / Fold change /veh KRTAP5-7 /// NADSYN1 (11734609_at) / RFU RASL12 (11751679_a_at) / Fold change /veh RASL12 (11751679_a_at) / RFU CDKN2B (11736163_a_at) / Fold change /veh CDKN2B (11736163_a_at) / RFU PRF1 (11729649_at) / Fold change /veh PRF1 (11729649_at) / RFU, ZNF638 /// ZNF638-IT1 / Fold change vs veh, ZNF638 /// ZNF638-IT1 / RFU, PANK3 / Fold change vs veh, PANK3 / RFU, SH3YL1 / Fold change vs veh, SH3YL1 / RFU, ZEB2 / Fold change vs veh, ZEB2 / RFU, NRIP1 / Fold change vs veh, NRIP1 / RFU, PTTG1IP / Fold change vs veh, PTTG1IP / RFU, CAPN2 / Fold change vs veh, CAPN2 / RFU, MED14 / Fold change vs veh, MED14 / RFU, SNORA58 / Fold change vs veh, SNORA58 / RFU, C1orf63 / Fold change vs veh, C1orf63 / RFU, LRRFIP1 / Fold change vs veh, LRRFIP1 / RFU, NDUFAF7 / Fold change vs veh, NDUFAF7 / RFU, SLC12A2 / Fold change vs veh, SLC12A2 / RFU, IBTK / Fold change vs veh, IBTK / RFU, ESF1 / Fold change vs veh, ESF1 / Fold change vs veh, TMEM50B / RFU, TAOK1 / Fold change vs veh, TAOK1 / RFU, ACBD3 / Fold change vs veh, ACBD3 / RFU, TMA16 / Fold change vs veh, TMA16 / RFU, RWDD3 / Fold change vs veh, RWDD3 / RFU, BCAT1 / Fold change vs veh, BCAT1 / RFU, EDEM3 / Fold change vs veh, EDEM3 / RFU, TMEM33 / Fold change vs veh, TMEM33 / RFU, WDR75 / Fold change vs veh, WDR75 / RFU, AHCTF1 / Fold change vs veh, AHCTF1 / RFU, TFRC / Fold change vs veh, TFRC / RFU, ZDHHC17 / Fold change vs veh, ZDHHC17 / RFU, NOM1 / Fold change vs veh, NOM1 / RFU, ARL8B / Fold change vs veh, ARL8B / RFU, ZBTB11 / Fold change vs veh, ZBTB11 / RFU, TAMM41 / Fold change vs veh, TAMM41 / RFU, KIAA1704 /// LOC100996395 / Fold change vs veh, KIAA1704 /// LOC100996395 / RFU, ING1 / Fold change vs veh, ING1 / RFU, TRMT61B / Fold change vs veh, TRMT61B / RFU, FUBP3 / Fold change vs veh, FUBP3 / RFU, TP53 / Fold change vs veh, TP53 / RFU, TNKS2 / Fold change vs veh, TNKS2 / RFU, ZFP14 / Fold change vs veh, ZFP14 / RFU, ACTR2 / Fold change vs veh, ACTR2 / RFU, PPP3R1 / Fold change vs veh, PPP3R1 / RFU, PIK3R1 / Fold change vs veh, PIK3R1 / RFU, HNRNPA1 / Fold change vs veh, HNRNPA1 / RFU, RNF170 / Fold change vs veh, RNF170 / RFU, ZNF28 / Fold change vs veh, ZNF28 / RFU, RNGTT / Fold change vs veh, RNGTT / RFU, OGT / Fold change vs veh, OGT / RFU, BRD1 / Fold change vs veh, BRD1 / RFU, MARS / Fold change vs veh, MARS / RFU, ZNF655 / Fold change vs veh, ZNF655 / RFU, FAHD1 / Fold change vs veh, FAHD1 / RFU, BDP1 / Fold change vs veh, BDP1 / RFU, LRRCC1 / Fold change vs veh, LRRCC1 / RFU, ARID1A / Fold change vs veh, ARID1A / RFU, ZNF146 / Fold change vs veh, ZNF146 / RFU, ZNF330 / Fold change vs veh, ZNF330 / RFU, GPN3 / Fold change vs veh, GPN3 / RFU, C9orf123 / Fold change vs veh, C9orf123 / RFU, N4BP2L2 / Fold change vs veh, N4BP2L2 / RFU, ARFIP1 / Fold change vs veh, ARFIP1 / RFU, FAM179B / Fold change vs veh, FAM179B / RFU, BCL10 / Fold change vs veh, BCL10 / RFU, UHRF1BP1L / Fold change vs veh, UHRF1BP1L / RFU, BET1 / Fold change vs veh, BET1 / RFU, CNOT2 / Fold change vs veh, CNOT2 / RFU, ZNF268 / Fold change vs veh, ZNF268 / Fold change vs veh, ZNF507 / RFU, DGCR2 / Fold change vs veh, DGCR2 / RFU, WDSUB1 / Fold change vs veh, WDSUB1 / Fold change vs veh, HSP90B1 /// MIR3652 / RFU, ADSS / Fold change vs veh, ADSS / RFU, GK / Fold change vs veh, GK / RFU, ZNF148 / Fold change vs veh, ZNF148 / RFU, TAF9 / Fold change vs veh, TAF9 / RFU, SLC1A5 / Fold change vs veh, SLC1A5 / RFU, SLMO2 / Fold change vs veh, SLMO2 / RFU, ABCC4 / Fold change vs veh, ABCC4 / RFU, LOC101060439 /// RAP1B / Fold change vs veh, LOC101060439 /// RAP1B / RFU, RFX7 / Fold change vs veh, RFX7 / RFU, GTPBP10 / Fold change vs veh, GTPBP10 / RFU, CNEP1R1 / Fold change vs veh, CNEP1R1 / RFU, BIVM-ERCC5 /// ERCC5 / Fold change vs veh, BIVM-ERCC5 /// ERCC5 / RFU, ILF3 / Fold change vs veh, ILF3 / RFU 11762660_at / Fold change /veh 11762660_at / RFU VCAN (11757783_s_at) / Fold change /veh VCAN (11757783_s_at) / RFU DDX43 (11728927_at) / Fold change /veh DDX43 (11728927_at) / RFU KRT8 (11758188_x_at) / Fold change /veh KRT8 (11758188_x_at) / RFU NKD1 (11759106_at) / Fold change /veh NKD1 (11759106_at) / RFU SRD5A1 (11742802_a_at) / Fold change /veh SRD5A1 (11742802_a_at) / RFU TPSAB1 /// TPSB2 (11721975_s_at) / Fold change /veh TPSAB1 /// TPSB2 (11721975_s_at) / RFU GSTM3 (11746129_a_at) / Fold change /veh GSTM3 (11746129_a_at) / RFU IL23R (11737362_x_at) / Fold change /veh IL23R (11737362_x_at) / RFU TMEM51 (11727254_a_at) / Fold change /veh TMEM51 (11727254_a_at) / RFU PIWIL2 (11732686_x_at) / Fold change /veh PIWIL2 (11732686_x_at) / RFU ORM1 (11744905_x_at) / Fold change /veh ORM1 (11744905_x_at) / RFU CCDC152 (11743942_at) / Fold change /veh CCDC152 (11743942_at) / RFU ECM1 (11717891_a_at) / Fold change /veh ECM1 (11717891_a_at) / RFU IL23R (11748794_a_at) / Fold change /veh IL23R (11748794_a_at) / RFU TNFAIP8L3 (11732012_x_at) / Fold change /veh TNFAIP8L3 (11732012_x_at) / RFU MBOAT4 (11741988_at) / Fold change /veh MBOAT4 (11741988_at) / RFU 11764193_at / Fold change /veh 11764193_at / RFU TMEM53 (11763286_at) / Fold change /veh TMEM53 (11763286_at) / RFU MAGEB2 (11727129_at) / Fold change /veh MAGEB2 (11727129_at) / RFU TMEM200A (11744735_a_at) / Fold change /veh TMEM200A (11744735_a_at) / RFU CCDC152 (11751479_a_at) / Fold change /veh CCDC152 (11751479_a_at) / RFU FAM211A (11726209_a_at) / Fold change /veh FAM211A (11726209_a_at) / RFU RGS16 (11746705_a_at) / Fold change /veh RGS16 (11746705_a_at) / RFU VCAN (11755009_s_at) / Fold change /veh VCAN (11755009_s_at) / RFU RHOB (11743442_s_at) / Fold change /veh RHOB (11743442_s_at) / RFU RGS16 (11720943_a_at) / Fold change /veh RGS16 (11720943_a_at) / RFU RGS16 (11720944_at) / Fold change /veh RGS16 (11720944_at) / RFU, VPS4B / Fold change vs veh, VPS4B / RFU, CREB1 / Fold change vs veh, CREB1 / RFU, DNAJC13 / Fold change vs veh, DNAJC13 / RFU, GNAQ / Fold change vs veh, GNAQ / RFU, CDK5R1 / Fold change vs veh, CDK5R1 / RFU, ZRANB3 / Fold change vs veh, ZRANB3 / RFU, CUL4A / Fold change vs veh, CUL4A / RFU, CCNY / Fold change vs veh, CCNY / RFU, UFL1 / Fold change vs veh, UFL1 / RFU, COG3 / Fold change vs veh, COG3 / RFU, DIAPH2 / Fold change vs veh, DIAPH2 / RFU, SKA2 / Fold change vs veh, SKA2 / RFU, AFF3 / Fold change vs veh, AFF3 / RFU, LMF1 / Fold change vs veh, LMF1 / RFU, IPO11 / Fold change vs veh, IPO11 / RFU, DFFB / Fold change vs veh, DFFB / RFU, FOXP1 / Fold change vs veh, FOXP1 / RFU, CARD8 / Fold change vs veh, CARD8 / RFU, STRN3 / Fold change vs veh, STRN3 / RFU, ADK / Fold change vs veh, ADK / RFU, RASSF2 / Fold change vs veh, RASSF2 / RFU, WIPF1 / Fold change vs veh, WIPF1 / RFU, LARP1B / Fold change vs veh, LARP1B / RFU, RASA1 / Fold change vs veh, RASA1 / RFU, RB1 / Fold change vs veh, RB1 / RFU, PPFIA1 / Fold change vs veh, PPFIA1 / RFU, MAT2A / Fold change vs veh, MAT2A / RFU, CCT5 / Fold change vs veh, CCT5 / RFU, WDR92 / Fold change vs veh, WDR92 / RFU, CUX1 / Fold change vs veh, CUX1 / RFU, TTC7A / Fold change vs veh, TTC7A / RFU, TMEM135 / Fold change vs veh, TMEM135 / RFU, DEPTOR / Fold change vs veh, DEPTOR / RFU, CPM / Fold change vs veh, CPM / RFU, DNAJB6 / Fold change vs veh, DNAJB6 / RFU, CACNA2D3 / Fold change vs veh, CACNA2D3 / RFU, DTX4 / Fold change vs veh, DTX4 / RFU, TFCP2 / Fold change vs veh, TFCP2 / RFU, GMCL1 /// GMCL1P1 / Fold change vs veh, GMCL1 /// GMCL1P1 / RFU, AEBP2 / Fold change vs veh, AEBP2 / RFU, SNHG1 /// SNORD22 /// SNORD25 /// SNORD26 /// SNORD27 /// SNORD28 /// SNORD29 /// SNORD31 / Fold change vs veh, SNHG1 /// SNORD22 /// SNORD25 /// SNORD26 /// SNORD27 /// SNORD28 /// SNORD29 /// SNORD31 / Fold change (Aza/veh), C12orf56 (ProbeSet 11735607_a_at) / Fold change (ACY-1035/veh), C12orf56 (ProbeSet 11735607_a_at) / Fold change (Aza/veh), FGFR1OP (ProbeSet 11751329_s_at) / Fold change (ACY-1035/veh), FGFR1OP (ProbeSet 11751329_s_at) / Fold change (Aza/veh), VPS36 (ProbeSet 11739960_a_at) / Fold change (ACY-1035/veh), VPS36 (ProbeSet 11739960_a_at) / RFU SYPL1 (11715823_x_at) / Fold change /veh SYPL1 (11715823_x_at) / RFU IGFBP7 (11715501_s_at) / Fold change /veh IGFBP7 (11715501_s_at) / RFU REEP3 (11722064_at) / Fold change /veh REEP3 (11722064_at) / RFU IGLL1 (11728026_x_at) / Fold change /veh IGLL1 (11728026_x_at): dose or concentration left out as unconfirmed
# Conditions: ProbeSet 11732281_s_at; LIST D
compound,measurement,value
Nc1ccc(-c2cccs2)cc1NC(=O)c1ccc2c(c1)cc(C1CC1)n2CCN1CCOCC1 [ACY-1035],"RFU, FOXP1",243.86 RFU
